pIC50: −log10 of the molar value.
What was measured:
Format in all cases: biochemical
CDK4/CycD = CDK4/CycD (Homo sapiens (Human), UniProt P11802); test: CDK4/CycD kinase assay (Caliper microfluidic); conditions: at Km for ATP
Procedure: (§1) Selected compounds disclosed herein were tested in CDK4/cyclinD1, CDK2/CycA and CDK2/cyclinE kinase assays by Nanosyn (Santa Clara, Calif.) to determine their inhibitory effect on these CDKs. The assays were performed using microfluidic kinase detection technology (Caliper Assay Platform). The compounds were tested in 12-point dose-response format in singlicate at Km for ATP. Phosphoacceptor substrate peptide concentration used was 1 μM for all assays and Staurosporine was used as the reference compound for all assays. Specifics of each assay are as described below:
CDK4/CyclinD1: Enzyme concentration: 1 nM; ATP concentration: 200 μM; Incubation time: 10 hr.

CDK6/CycD3 = CDK6/CycD3 (Homo sapiens (Human), UniProt Q00534); test: CDK6/CycD3 kinase assay
Chain of CDK6/CycD3 (Q00534 whole entry): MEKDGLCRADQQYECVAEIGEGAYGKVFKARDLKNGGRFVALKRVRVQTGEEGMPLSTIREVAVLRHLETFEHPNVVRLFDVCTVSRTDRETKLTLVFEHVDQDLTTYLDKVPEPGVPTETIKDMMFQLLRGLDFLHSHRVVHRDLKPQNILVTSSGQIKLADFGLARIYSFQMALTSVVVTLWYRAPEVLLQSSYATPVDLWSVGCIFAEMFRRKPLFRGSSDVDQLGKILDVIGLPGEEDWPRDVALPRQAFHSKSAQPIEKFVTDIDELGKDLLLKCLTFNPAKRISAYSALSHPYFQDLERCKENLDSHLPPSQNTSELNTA
Chain of CDK6/CycD3 (P30281 whole entry partner): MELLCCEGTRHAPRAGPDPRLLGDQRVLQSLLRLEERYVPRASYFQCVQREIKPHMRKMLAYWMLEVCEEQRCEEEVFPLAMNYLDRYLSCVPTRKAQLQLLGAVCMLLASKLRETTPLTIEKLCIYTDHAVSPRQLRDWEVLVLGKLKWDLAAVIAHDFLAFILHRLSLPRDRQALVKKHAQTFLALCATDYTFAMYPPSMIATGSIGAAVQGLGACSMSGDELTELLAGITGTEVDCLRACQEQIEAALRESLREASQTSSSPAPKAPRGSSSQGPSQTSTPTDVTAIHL
Procedure: [The procedure below names another target; the source lists this target under the same test.] as §1, with “assays.” for “assays. Specifics of each assay are as described below:”

CDK2/CycA = CDK2/CycA (Homo sapiens (Human), UniProt P24941); test: CDK2/CycA kinase assay (Caliper microfluidic); conditions: at Km for ATP
Procedure: as §1
CDK2/CyclinA: Enzyme concentration: 0.2 nM; ATP concentration: 50 μM; Incubation time: 3 hr.

CDK2/CycE = CDK2/CycE (Homo sapiens (Human), UniProt P24941); test: CDK2/CycE kinase assay (Caliper microfluidic); conditions: at Km for ATP
Procedure: as §1
CDK2/CyclinE: Enzyme concentration: 0.28 nM; ATP concentration: 100 μM; Incubation time: 1 hr.

CDK5/p35 = CDK5/p35 (Homo sapiens (Human), UniProt Q00535); test: CDK5/p35 kinase assay
Chain of CDK5/p35 (Q00535 whole entry): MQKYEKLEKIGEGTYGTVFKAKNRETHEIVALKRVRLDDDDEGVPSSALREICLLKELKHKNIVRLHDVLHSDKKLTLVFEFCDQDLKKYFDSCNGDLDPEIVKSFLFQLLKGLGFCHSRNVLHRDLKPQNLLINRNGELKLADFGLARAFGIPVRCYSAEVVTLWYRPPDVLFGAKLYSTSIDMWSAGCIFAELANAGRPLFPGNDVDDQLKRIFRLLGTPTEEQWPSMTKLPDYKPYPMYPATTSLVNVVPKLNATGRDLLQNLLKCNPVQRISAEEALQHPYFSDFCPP
Chain of CDK5/p35 (Q15078 whole entry partner): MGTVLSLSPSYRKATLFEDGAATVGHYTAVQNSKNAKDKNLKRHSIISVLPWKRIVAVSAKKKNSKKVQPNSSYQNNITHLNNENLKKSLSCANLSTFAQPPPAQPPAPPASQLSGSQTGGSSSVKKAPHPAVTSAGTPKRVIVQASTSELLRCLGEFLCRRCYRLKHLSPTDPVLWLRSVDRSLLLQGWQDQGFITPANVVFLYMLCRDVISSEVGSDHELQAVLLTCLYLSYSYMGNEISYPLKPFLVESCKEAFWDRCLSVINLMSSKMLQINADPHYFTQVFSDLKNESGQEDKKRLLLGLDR

CDK9/CycT = CDK9/CycT (Homo sapiens (Human), UniProt P50750); test: CDK9/CycT kinase assay
Chain of CDK9/CycT (P50750 whole entry): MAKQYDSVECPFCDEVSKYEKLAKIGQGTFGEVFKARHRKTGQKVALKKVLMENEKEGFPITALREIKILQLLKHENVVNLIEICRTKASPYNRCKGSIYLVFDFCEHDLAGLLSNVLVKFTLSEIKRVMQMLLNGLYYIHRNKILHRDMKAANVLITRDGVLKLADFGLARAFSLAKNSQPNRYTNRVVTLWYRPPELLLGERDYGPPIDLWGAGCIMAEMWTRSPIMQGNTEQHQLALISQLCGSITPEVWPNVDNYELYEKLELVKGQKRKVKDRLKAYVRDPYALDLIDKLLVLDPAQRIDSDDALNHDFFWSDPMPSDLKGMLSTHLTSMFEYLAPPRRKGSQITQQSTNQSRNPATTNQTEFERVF
Chain of CDK9/CycT (O60563 whole entry partner): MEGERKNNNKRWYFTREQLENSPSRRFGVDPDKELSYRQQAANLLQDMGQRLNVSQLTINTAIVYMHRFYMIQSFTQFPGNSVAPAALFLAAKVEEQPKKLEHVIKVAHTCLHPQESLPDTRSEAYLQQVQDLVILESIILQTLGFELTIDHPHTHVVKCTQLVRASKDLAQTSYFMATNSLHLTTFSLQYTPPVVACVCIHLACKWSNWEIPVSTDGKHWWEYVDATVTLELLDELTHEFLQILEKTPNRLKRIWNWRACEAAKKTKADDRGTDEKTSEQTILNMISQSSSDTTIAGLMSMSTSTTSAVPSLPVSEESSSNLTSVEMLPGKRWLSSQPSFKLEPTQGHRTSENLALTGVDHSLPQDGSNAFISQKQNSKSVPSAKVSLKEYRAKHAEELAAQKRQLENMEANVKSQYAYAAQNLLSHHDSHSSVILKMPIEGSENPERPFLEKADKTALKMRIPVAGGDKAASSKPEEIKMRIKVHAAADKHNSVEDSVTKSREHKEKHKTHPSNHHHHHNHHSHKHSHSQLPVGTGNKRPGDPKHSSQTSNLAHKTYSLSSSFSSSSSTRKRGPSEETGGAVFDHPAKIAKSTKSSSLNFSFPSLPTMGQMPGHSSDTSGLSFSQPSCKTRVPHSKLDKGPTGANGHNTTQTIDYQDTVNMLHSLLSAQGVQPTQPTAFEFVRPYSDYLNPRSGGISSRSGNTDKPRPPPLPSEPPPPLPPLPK

CDK5/p25 = CDK5/p25 (Homo sapiens (Human), UniProt Q00535); test: CDK5/p25 kinase assay
Chain of CDK5/p25 (Q00535 whole entry): as the sequence (Q00535 whole entry) above

CDK7/CycH/MAT1 = CDK7/CycH/MAT1 (Homo sapiens (Human), UniProt P50613); test: CDK7/CycH/MAT1 kinase assay
Chain of CDK7/CycH/MAT1 (P50613 whole entry): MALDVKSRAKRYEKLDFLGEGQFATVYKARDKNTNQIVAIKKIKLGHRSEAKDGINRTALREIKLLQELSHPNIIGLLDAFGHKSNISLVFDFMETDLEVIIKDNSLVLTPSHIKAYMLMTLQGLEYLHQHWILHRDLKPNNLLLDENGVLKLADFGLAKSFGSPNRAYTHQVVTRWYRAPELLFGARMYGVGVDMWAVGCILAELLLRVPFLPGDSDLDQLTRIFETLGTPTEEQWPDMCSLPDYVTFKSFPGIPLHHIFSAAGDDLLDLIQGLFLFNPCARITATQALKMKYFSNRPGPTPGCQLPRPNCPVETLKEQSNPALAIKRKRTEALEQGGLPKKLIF
Chain of CDK7/CycH/MAT1 (P51946 whole entry partner): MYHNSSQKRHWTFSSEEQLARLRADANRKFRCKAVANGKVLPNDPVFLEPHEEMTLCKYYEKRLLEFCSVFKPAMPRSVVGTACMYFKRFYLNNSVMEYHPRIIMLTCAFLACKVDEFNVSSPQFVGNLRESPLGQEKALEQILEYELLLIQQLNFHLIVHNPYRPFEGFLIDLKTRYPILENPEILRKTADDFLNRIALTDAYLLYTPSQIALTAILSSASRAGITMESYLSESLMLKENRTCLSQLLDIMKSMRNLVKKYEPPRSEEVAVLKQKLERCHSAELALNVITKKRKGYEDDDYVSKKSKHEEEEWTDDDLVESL
Chain of CDK7/CycH/MAT1 (P51948 whole entry partner): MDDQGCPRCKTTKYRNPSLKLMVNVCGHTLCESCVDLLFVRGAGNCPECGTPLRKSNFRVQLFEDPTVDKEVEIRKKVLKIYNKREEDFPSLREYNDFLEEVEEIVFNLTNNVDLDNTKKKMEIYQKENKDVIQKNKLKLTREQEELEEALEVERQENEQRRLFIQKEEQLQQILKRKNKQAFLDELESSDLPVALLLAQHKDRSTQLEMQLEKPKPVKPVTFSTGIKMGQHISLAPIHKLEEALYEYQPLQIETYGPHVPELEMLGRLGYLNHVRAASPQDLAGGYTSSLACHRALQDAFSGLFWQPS

Chain of CDK4/CycD (P11802 whole entry): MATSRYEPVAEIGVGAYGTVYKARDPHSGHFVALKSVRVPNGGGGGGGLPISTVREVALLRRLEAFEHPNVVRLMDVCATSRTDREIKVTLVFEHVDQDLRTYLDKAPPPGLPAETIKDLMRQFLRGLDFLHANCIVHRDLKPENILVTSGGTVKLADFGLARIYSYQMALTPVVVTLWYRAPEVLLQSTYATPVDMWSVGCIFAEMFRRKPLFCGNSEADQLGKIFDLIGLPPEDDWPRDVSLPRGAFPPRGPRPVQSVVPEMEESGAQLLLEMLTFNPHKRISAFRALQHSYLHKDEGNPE
Chain of CDK4/CycD (P24385 whole entry partner): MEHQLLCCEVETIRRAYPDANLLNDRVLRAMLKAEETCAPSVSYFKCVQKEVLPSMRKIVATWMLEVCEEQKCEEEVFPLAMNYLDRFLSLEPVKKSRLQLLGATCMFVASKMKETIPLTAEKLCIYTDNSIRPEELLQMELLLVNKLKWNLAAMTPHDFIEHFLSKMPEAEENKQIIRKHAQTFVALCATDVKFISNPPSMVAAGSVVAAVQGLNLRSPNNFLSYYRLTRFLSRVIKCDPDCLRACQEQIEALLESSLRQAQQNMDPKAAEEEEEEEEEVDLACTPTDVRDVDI

SMILES	pIC50 (CDK4/CycD)	pIC50 (CDK6/CycD3)	pIC50 (CDK2/CycA)	pIC50 (CDK2/CycE)	pIC50 (CDK5/p35)	pIC50 (CDK9/CycT)	pIC50 (CDK5/p25)	pIC50 (CDK7/CycH/MAT1)
CN1CCN(c2ccc(Nc3nccc(N4CCNC4=O)n3)nc2)CC1 [compound 16, 1-(2-{[5-(4-methylpiperazin-1-yl)pyridin-2-yl]amino}pyrimidin-4-yl)imidazolidin-2-one]	5.09	5.47	< 4.00	< 4.00	4.14	5.03	4.02	4.53
CC(C)C1CC(=O)NN1c1ccnc(Nc2ccc(N3CCN(C)CC3)cn2)n1 (stereo not shown) [compound 28, 5-Isopropyl-1-(2-{[5-(4-methylpiperazin-1-yl)pyridin-2-yl]amino}pyrimidin-4-yl)pyrazolidin-3-one]	< 4.00	< 4.00	–	–	–	–	–	–
CN1CCN(c2ccc(Nc3nccc(N4C(c5ccsc5)=NCC45CCCCC5)n3)nc2)CC1 [compound 55, N-(5-(4-methylpiperazin-1-yl)pyridin-2-yl)-4-(2-(thiophen-3-yl)-1,3-diazaspiro[4.5]dec-2-en-1-yl)pyrimidin-2-amine]	< 4.00	< 4.00	< 4.00	< 4.00	< 4.00	< 4.00	< 4.00	< 4.00
CN1CCN(c2ccc(Nc3nccc(N4C(c5ccccc5)=NCC45CCCCC5)n3)nc2)CC1 [compound 53, N-(5-(4-methylpiperazin-1-yl)pyridin-2-yl)-4-(2-phenyl-1,3-diazaspiro[4.5]dec-2-en-1-yl)pyrimidin-2-amine]	< 4.00	4.15	< 4.00	< 4.00	< 4.00	< 4.00	< 4.00	< 4.00
CN1CCN(c2ccc(Nc3nccc(N4CCNC(=O)C4)n3)nc2)CC1 [compound 32, 4-(2-{[5-(4-Methylpiperazin-1-yl)pyridin-2-yl]amino}pyrimidin-4-yl)piperazin-2-one]	4.84	4.29	–	–	–	4.64	–	–
CN1CCN(c2ccc(Nc3nccc(N4C(c5ccoc5)=NCC45CCCCC5)n3)nc2)CC1 [compound 54, 4-(2-(furan-3-yl)-1,3-diazaspiro[4.5]dec-2-en-1-yl)-N-(5-(4-methylpiperazin-1-yl)pyridin-2-yl)pyrimidin-2-amine]	< 4.00	< 4.00	< 4.00	< 4.00	< 4.00	< 4.00	< 4.00	< 4.00

Compounds with a higher pIC50 (CDK4/CycD), results first:

pIC50 (CDK4/CycD)	pIC50 (CDK6/CycD3)	pIC50 (CDK2/CycA)	pIC50 (CDK2/CycE)	pIC50 (CDK5/p35)	pIC50 (CDK9/CycT)	pIC50 (CDK5/p25)	pIC50 (CDK7/CycH/MAT1)	SMILES
5.77	5.24	4.06	4.15	–	–	–	–	C[C@H]1CNC(=O)CN1c1ccnc(Nc2ccc(N3CCN(C)CC3)cn2)n1 [compound 40, (5S)-5-Methyl-4-(2-{[5-(4-methylpiperazin-1-yl)pyridin-2-yl]amino}pyrimidin-4-yl)piperazin-2-one]
6.36	6.00	< 4.00	< 4.00	4.42	6.12	4.41	< 4.00	CN1CCN(c2ccc(Nc3nccc(N4CC(=O)NCC45CCCCC5)n3)nc2)CC1 [compound 20, 1-(2-{[5-(4-Methylpiperazin-1-yl)pyridin-2-yl]amino}pyrimidin-4-yl)-1,4-diazaspiro[5.5]undecan-3-one]
6.00	5.30	< 4.00	< 4.00	< 4.00	5.02	< 4.00	4.02	CN1CCN(c2ccc(Nc3nccc(N4C(=O)NCC45CCCCC5)n3)nc2)CC1 [compound 6, 1-(2-{[5-(4-methylpiperazin-1-yl)pyridin-2-yl]amino}pyrimidin-4-yl)-1,3-diazaspiro[4.5]decan-2-one]
6.12	5.48	5.01	4.64	–	–	–	–	CC(C)[C@H]1CNC(=O)N1c1ccnc(Nc2ccc(N3CCN(C)CC3)cn2)n1 [compound 46, (5S)-5-Isopropyl-1-(2-{[5-(4-methylpiperazin-1-yl)pyridin-2-yl]amino}pyrimidin-4-yl)imidazolidin-2-one]
5.82	5.40	4.45	4.24	–	–	–	–	C[C@H]1CNC(=O)N1c1ccnc(Nc2ccc(N3CCN(C)CC3)cn2)n1 [compound 52, (5S)-5-methyl-1-(2-{[5-(4-methylpiperazin-1-yl)pyridin-2-yl]amino}pyrimidin-4-yl)imidazolidin-2-one]
5.40	4.48	< 4.00	< 4.00	–	–	–	–	CC[C@H]1CC(=O)NN1c1ccnc(Nc2ccc(N3CCN(C)CC3)cn2)n1 [compound 56, (S)-5-ethyl-1-(2-((5-(4-methylpiperazin-1-yl)pyridin-2-yl)amino)pyrimidin-4-yl)pyrazolidin-3-one]
5.57	4.45	< 4.00	< 4.00	< 4.00	< 4.00	< 4.00	< 4.00	CN1CCN(c2ccc(Nc3nccc(N4C(=O)N(Cc5ccccc5)CC45CCCCC5)n3)nc2)CC1 [compound 10, 3-benzyl-1-(2-{[5-(4-methylpiperazin-1-yl)pyridin-2-yl]amino}pyrimidin-4-yl)-1,3-diazaspiro[4.5]decan-2-one]
5.49	4.79	< 4.00	< 4.00	< 4.00	< 4.00	< 4.00	< 4.00	CN1CCN(c2ccc(Nc3nccc(N4C(=O)N(C)CC45CCCCC5)n3)nc2)CC1 [compound 8, 3-Methyl-1-(2-{[5-(4-methylpiperazin-1-yl)pyridin-2-yl]amino}pyrimidin-4-yl)-1,3-diazaspiro[4.5]decan-2-one]

From patent publication US10654831B2, “Antiproliferative pyrimidine-based compounds” (G1 Therapeutics, Inc., priority 2016, dated 2020)
